Experimental data: US9981909B2 (Janssen Pharmaceutica NV, priority 2008, dated 2018)
Counter-ions that a name gives are not always drawn. Like-named read-outs stand apart in the source and are kept apart here.

Tests used:
[1] = target: human SERT (Homo sapiens (Human), UniProt P31645); assay: human SERT binding assay with [3H]-citalopram on HEK-293 membranes; settings: read-out: hSERT binding Ki
[2] = target: r5-HT7 receptor (Rattus norvegicus (Rat), UniProt P32305); assay: HitHunter cAMP assay, antagonist testing against 100 nM 5-CT; assay type: cell-based
Chain of r5-HT7 receptor (P32305 1-435): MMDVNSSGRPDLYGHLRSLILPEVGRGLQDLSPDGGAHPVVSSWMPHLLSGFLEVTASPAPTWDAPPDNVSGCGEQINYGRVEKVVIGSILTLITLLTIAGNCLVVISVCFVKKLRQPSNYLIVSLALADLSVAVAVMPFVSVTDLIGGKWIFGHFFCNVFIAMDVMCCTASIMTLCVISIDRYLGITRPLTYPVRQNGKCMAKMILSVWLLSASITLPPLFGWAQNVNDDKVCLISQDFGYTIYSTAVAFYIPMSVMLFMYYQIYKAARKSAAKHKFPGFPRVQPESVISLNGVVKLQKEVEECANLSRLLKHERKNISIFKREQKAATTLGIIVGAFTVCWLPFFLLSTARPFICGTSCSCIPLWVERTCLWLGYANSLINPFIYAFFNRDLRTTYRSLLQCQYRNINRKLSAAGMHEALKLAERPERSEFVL
Experimental: (§1) Receptor binding was performed using membrane fractions prepared from the HEK-293 cell line recombinantly expressing rat 5-HT7 receptors (NCBI accession NM_022938). Compound affinity for the rat 5-HT7 receptor subtype was evaluated by competitive radioligand binding assays using 5-carboxamido[^3H]tryptamine ([^3H]5-CT) (Amersham Biosciences, cat. 90000403) detection. HitHunter™ cAMP assays are in-vitro based competitive immunoassays. The assay was performed on the HEK-293 cell line stably transfected with r5-HT7 receptor. Cells were pre-incubated with test compounds for 10 minutes. For antagonist testing, the cells were then challenged with 100 nM 5-CT for 20 minutes. Cells were then lysed and cAMP measured according to manufacturers protocol (Amersham, cat. NET791250UC) or [^3H]mesulergine (Amersham, cat. TRK1041). The assay was performed on membranes prepared from HEK-293 cells stably transfected with h5-HT6. Following centrifugation, membranes were resuspended and incubated for 60 min at room temperature with 1.7 nM [^3H]LSD in the presence of increasing concentration of test compounds. Nonspecific binding was defined in the presence of 10 μM clozapine (Tocris, cat. TRK1068). Homogenized HEK-293 membranes expressing the human SERT were incubated in 50 mM Tris-HCl (pH 7.5), 120 mM NaCl, 5 mM KCl with [^3H]-citalopram (3 nM) with or without test compounds. Nonspecific binding was determined in the presence of 10 μM fluoxetine. Radioactivity readouts and Ki values were performed as previously described for r5-HT7. […] Compounds were assayed in their free form or as salts, as indicated in the Examples section above.

[3] = target: h5-HT6 (Homo sapiens (Human), UniProt P50406); assay: h5-HT6 binding assay with [3H]LSD on HEK-293 membranes; settings: h5-HT6, [3H]LSD, HEK-293 membranes; read-out: h5HT6 binding Ki
Chain of h5-HT6 (P50406 whole entry): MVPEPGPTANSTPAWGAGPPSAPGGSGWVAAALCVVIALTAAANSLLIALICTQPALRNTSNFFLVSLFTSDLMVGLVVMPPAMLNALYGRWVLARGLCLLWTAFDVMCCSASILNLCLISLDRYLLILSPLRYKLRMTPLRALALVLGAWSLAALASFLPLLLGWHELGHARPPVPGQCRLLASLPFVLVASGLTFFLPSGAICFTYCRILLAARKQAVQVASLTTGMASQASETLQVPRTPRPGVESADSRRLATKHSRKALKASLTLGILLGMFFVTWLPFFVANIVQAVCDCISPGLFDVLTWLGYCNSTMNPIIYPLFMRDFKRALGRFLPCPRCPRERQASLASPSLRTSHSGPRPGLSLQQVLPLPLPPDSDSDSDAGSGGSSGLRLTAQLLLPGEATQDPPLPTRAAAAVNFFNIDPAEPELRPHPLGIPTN
Experimental: as §1

[4] = target: rat 5-HT7 receptor (Rattus norvegicus (Rat), UniProt P32305); assay: r5-HT7 binding assay, competitive radioligand binding with [3H]5-CT
Chain of rat 5-HT7 receptor (P32305 1-435): as the sequence (P32305 1-435) above
Summary of the method: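 For h5-HT6, stably transfected HEK-293 membranes were exposed to 1.7 nM [3H]LSD plus increasing compound for 60 min at room temperature, with 10 μM clozapine for nonspecific binding. The r5-HT7 assay used [3H]5-CT competition on recombinant HEK-293 membranes, Ki derived from radioactivity counts.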

[5] = target: h5HT2A (Homo sapiens (Human), UniProt P28223); assay: h5HT2A binding
Chain of h5HT2A (P28223 whole entry): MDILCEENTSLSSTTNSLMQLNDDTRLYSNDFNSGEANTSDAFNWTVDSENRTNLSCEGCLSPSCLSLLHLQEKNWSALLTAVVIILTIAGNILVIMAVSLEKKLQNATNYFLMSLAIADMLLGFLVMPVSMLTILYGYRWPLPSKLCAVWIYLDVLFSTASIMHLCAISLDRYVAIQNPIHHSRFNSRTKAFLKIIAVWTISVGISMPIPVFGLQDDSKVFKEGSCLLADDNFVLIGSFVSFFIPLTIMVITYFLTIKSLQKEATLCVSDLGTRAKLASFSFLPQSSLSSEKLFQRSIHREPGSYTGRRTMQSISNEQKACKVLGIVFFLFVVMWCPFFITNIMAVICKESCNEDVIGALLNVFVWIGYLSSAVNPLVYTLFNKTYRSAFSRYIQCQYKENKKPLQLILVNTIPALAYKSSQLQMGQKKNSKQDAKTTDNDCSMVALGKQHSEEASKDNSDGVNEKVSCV

[6] = target: h5HT2C (Homo sapiens (Human), UniProt P28335); assay: h5HT2C binding
Chain of h5HT2C (P28335 33-458): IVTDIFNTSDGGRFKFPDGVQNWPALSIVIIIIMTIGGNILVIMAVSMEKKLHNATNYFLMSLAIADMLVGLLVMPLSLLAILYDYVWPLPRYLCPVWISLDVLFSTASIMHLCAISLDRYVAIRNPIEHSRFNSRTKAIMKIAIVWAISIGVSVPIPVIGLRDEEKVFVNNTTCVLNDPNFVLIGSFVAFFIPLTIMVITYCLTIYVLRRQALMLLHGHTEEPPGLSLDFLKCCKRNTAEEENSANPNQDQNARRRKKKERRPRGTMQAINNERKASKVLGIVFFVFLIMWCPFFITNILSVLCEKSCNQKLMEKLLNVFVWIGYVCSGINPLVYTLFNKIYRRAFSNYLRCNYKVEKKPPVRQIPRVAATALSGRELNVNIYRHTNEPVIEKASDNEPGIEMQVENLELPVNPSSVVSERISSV

[7] = target: h5HT2B (Homo sapiens (Human), UniProt P41595); assay: h5HT2B binding
Chain of h5HT2B (P41595 whole entry): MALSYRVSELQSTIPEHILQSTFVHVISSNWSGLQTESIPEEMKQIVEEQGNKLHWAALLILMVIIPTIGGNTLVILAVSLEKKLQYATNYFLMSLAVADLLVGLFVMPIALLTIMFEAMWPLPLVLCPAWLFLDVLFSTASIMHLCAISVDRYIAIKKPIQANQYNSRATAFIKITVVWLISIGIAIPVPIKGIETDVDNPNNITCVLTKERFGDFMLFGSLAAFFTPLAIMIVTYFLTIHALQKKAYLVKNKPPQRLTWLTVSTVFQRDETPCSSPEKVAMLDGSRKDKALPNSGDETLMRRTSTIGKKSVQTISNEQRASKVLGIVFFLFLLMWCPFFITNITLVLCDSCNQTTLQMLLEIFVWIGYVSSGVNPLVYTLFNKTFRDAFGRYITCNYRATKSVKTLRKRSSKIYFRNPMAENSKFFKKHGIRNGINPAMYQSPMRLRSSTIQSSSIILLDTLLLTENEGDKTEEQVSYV

[8] = antagonist testing, 100 nM 5-CT challenge, HEK-293 r5-HT7, read-out: R5HT7 cAMP pKb (converted)
[9] = rat 5-HT7 receptor, HEK-293 membranes

Chain of human SERT (P31645 whole entry): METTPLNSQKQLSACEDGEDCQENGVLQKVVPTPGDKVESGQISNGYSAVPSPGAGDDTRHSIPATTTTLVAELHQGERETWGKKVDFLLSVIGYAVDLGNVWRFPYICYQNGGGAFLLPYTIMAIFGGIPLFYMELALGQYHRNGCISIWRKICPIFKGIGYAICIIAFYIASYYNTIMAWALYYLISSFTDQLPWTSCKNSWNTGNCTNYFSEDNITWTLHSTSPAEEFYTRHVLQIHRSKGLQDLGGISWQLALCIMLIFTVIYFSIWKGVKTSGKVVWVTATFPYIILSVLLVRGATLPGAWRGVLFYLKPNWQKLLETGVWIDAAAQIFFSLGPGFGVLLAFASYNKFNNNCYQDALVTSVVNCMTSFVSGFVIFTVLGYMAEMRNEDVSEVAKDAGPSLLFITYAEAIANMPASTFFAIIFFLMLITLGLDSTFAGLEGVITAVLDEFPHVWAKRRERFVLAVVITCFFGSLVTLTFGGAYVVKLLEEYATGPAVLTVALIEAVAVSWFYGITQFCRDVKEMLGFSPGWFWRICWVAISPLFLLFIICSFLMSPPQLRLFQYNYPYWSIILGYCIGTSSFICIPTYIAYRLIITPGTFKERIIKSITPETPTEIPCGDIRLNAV

SMILES	Ki [1] [µM]	Kb [2, 8] [µM]	Ki [3] [µM]	Ki [4, 9] [µM]	Ki [5] [µM]	Ki [6] [µM]	Ki [7] [µM]	Kb [2] [µM]	Ki ([4]; rat 5-HT7, HEK-293 membranes) [µM]
CC(Oc1ccc(Cl)cc1OC1CNC1)c1ccc(C(F)(F)F)o1 (racemic) [Example 146, (±)-3-[5-Chloro-2-[1-(5-trifluoromethyl-furan-2-yl)-ethoxy]-phenoxy]-azetidine]	0.059	0.00794	0.558	0.012					
Cc1ccc2c(c1)C(Oc1ccc(Cl)cc1OC1CNC1)CC2 (racemic) [Example 158, (±)-3-[5-Chloro-2-(6-methyl-indan-1-yloxy)-phenoxy]-azetidine]	0.067	0.01		0.015	0.008	0.146	0.036		
Clc1ccc(OC2CCc3ccc(Cl)cc32)c(OC2CNC2)c1 (racemic) [Example 159, (±)-3-[5-Chloro-2-(6-chloro-indan-1-yloxy)-phenoxy]-azetidine]	0.021	0.00794		0.017	0.006	0.196	0.041		
C[C@@H](Oc1ccc(C(F)(F)F)cc1OC1CNC1)c1cccc(C(F)(F)F)c1 (stereo in doubt) [Example 200, 3-[5-Trifluoromethyl-2-[1-(3-trifluoromethyl-phenyl)-ethoxy]-phenoxy]-azetidine]	0.224	0.158		0.031	0.605	5	7.57		
FC(F)(F)c1ccc(COc2ccc(Br)cc2OC2CNC2)o1 [Example 10, 3-[5-Bromo-2-(5-trifluoromethyl-furan-2-ylmethoxy)-phenoxy]-azetidine]	0.039	0.00631	0.05	0.007					
Cc1nc(COc2ccc(Cl)cc2OC2CNC2)cs1 [Example 29, 4-[2-(Azetidin-3-yloxy)-4-chloro-phenoxymethyl]-2-methyl-thiazole]	0.027	0.126		0.083	0.225	1.11	0.529		
Clc1ccc(OCC2CCCCC2)c(OC2CNC2)c1 [Example 73, 3-(5-Chloro-2-cyclohexylmethoxy-phenoxy)-azetidine trifluoroacetate]			0.012	0.023				0.251	
FC(F)(F)c1cccc(COc2ccc(Cl)cc2OC2CNC2)n1 [Example 79, 2-[2-(Azetidin-3-yloxy)-4-chloro-phenoxymethyl]-6-trifluoromethyl-pyridine]	0.003	0.0501		0.026	0.069	0.29	0.248		
FC(F)(F)c1ccnc(COc2ccc(Cl)cc2OC2CNC2)c1 [Example 81, 2-[2-(Azetidin-3-yloxy)-4-chloro-phenoxymethyl]-4-trifluoromethyl-pyridine]	1.17			0.097	0.076	0.59	0.367		
Clc1ccc(O[C@@H]2CCNC2)c(OCc2ccccc2)c1 [Example 90, (R)-3-(2-Benzyloxy-4-chloro-phenoxy)-pyrrolidine]				0.92	0.02	0.16	0.083		
CN1CC[C@@H](Oc2ccc(Cl)cc2OCc2ccccc2)C1 [Example 91, (R)-3-(2-Benzyloxy-4-chloro-phenoxy)-1-methyl-pyrrolidine]				0.5	0.005	0.12	0.05		
Clc1cccc(COc2cc(Cl)ccc2O[C@@H]2CCNC2)c1 [Example 92, (R)-3-[4-Chloro-2-(3-chloro-benzyloxy)-phenoxy]-pyrrolidine]				0.26	0.014	0.11	0.028		
CN1CC[C@@H](Oc2ccc(Cl)cc2OCc2cccc(Cl)c2)C1 [Example 93, (R)-3-[4-Chloro-2-(3-chloro-benzyloxy)-phenoxy]-1-methyl-pyrrolidine]				0.14	0.003	0.051	0.013		
Clc1cccc(COc2cc(Cl)ccc2O[C@H]2CCNC2)c1 [Example 94, (S)-3-[4-Chloro-2-(3-chloro-benzyloxy)-phenoxy]-pyrrolidine]				> 2.5	0.032	0.069	0.25		
FC(F)(F)c1ccc2c(c1)C(Oc1ccc(Cl)cc1OC1CNC1)CC2 (stereo not drawn) [Example 160, 3-[5-Chloro-2-(6-trifluoromethyl-indan-1-yloxy)-phenoxy]-azetidine]	0.21	0.00501		0.015	0.005	0.146	0.025		
Clc1ccc(OC2CCc3ccccc3C2)c(OC2CNC2)c1 (stereo not drawn) [Example 164, 3-[5-Chloro-2-(1,2,3,4-tetrahydro-naphthalen-2-yloxy)-phenoxy]-azetidine]	0.008			0.033	0.024	0.181	0.03		
COC(COc1ccc(Cl)cc1OC1CNC1)c1ccccc1 (stereo not drawn) [Example 168, 3-[5-Chloro-2-(2-methoxy-2-phenyl-ethoxy)-phenoxy]-azetidine]				0.13	0.008	0.048	0.021		
FC(F)(COc1ccc(Cl)cc1OC1CNC1)c1ccccc1 [Example 184, 3-[5-Chloro-2-(2,2-difluoro-2-phenyl-ethoxy)-phenoxy]-azetidine]	0.124	0.0501		0.023	0.005	0.038	0.012		
Clc1ccc(C2(COc3ccc(Cl)cc3OC3CNC3)CCC2)cc1 [Example 188, 3-[5-Chloro-2-[1-(4-chloro-phenyl)-cyclobutylmethoxy]-phenoxy]-azetidine]	0.065			0.034	0.008	0.143	0.028		
COc1cccc(CCOc2ccc(Cl)cc2OC2CNC2)c1 [Example 190, 3-[5-Chloro-2-[2-(3-methoxy-phenyl)-ethoxy]-phenoxy]-azetidine]	0.211			0.008	0.014	0.056	0.069		
Fc1cccc(CCOc2ccc(Cl)cc2OC2CNC2)c1 [Example 191, 3-[5-Chloro-2-[2-(3-fluoro-phenyl)-ethoxy]-phenoxy]-azetidine]	0.007			0.008	0.008	0.053	0.011		
Clc1ccc(CCOc2ccc(Cl)cc2OC2CNC2)cc1 [Example 192, 3-[5-Chloro-2-[2-(4-chloro-phenyl)-ethoxy]-phenoxy]-azetidine]	0.088			0.008	0.009	0.14	0.022		
Fc1ccc(CCOc2ccc(Cl)cc2OC2CNC2)cc1 [Example 193, 3-[5-Chloro-2-[2-(4-fluoro-phenyl)-ethoxy]-phenoxy]-azetidine]	0.009			0.005	0.011	0.071	0.014		
COc1ccc(CCOc2ccc(Cl)cc2OC2CNC2)cc1 [Example 194, 3-[5-Chloro-2-[2-(4-methoxy-phenyl)-ethoxy]-phenoxy]-azetidine]	0.141			0.004	0.004	0.081	0.195		
FC(F)(F)c1ccc(OCc2ccc(C(F)(F)F)o2)c(OC2CNC2)c1 [Example 199, 3-[5-Trifluoromethyl-2-(5-trifluoromethyl-furan-2-ylmethoxy)-phenoxy]-azetidine]	0.128	0.0398		0.018	0.103	0.526	1.22		
FC(F)(F)c1ccc(OCc2ccccc2)c(OC2CNC2)c1 [Example 201, hydrochloride]	0.056	0.0501		0.031	0.067	0.498	0.184		
O=C(c1ccc2c(c1)OCO2)c1ccc(Br)cc1OC1CNC1 [Example 289, [2-(Azetidin-3-yloxy)-4-bromo-phenyl]-benzo[1,3]dioxol-5-yl-methanone]	0.437	0.0398							0.034
